Columns and labels:
[1] = target: T1, human GST-DYRK1A (full length) (Homo sapiens, UniProt Q13627); assay: GST-DYRK1A enzyme inhibition, ADP-Glo kinase assay; assay type: biochemical; conditions: read-out: DYRK1 IC50
T1 construct: purified human GST-DYRK1A (full length, Thermo scientifics) enzyme; GST; purchased Thermo scientifics
Procedure: (§1) In order to evaluate the inhibitory activity of the compounds according to the present invention on LRRK2, LRRK2 (G2019S), DYRK1, CLK1 and TTK kinases, the following experiment was performed.
(§2) Example compounds were reacted with the purified human GST-DYRK1A (full length, Thermo scientifics) enzyme to evaluate the enzyme inhibitory ability as follows. As the reaction buffer, the composition of 40 mM Tris-HCl pH 7.4, 20 mM MgCl2, 0.5 mg/mL BSA, and 50 uM DTT was used, and the reaction of all test materials was performed on the reaction buffer. During the test, the human GST-DYRK1A (full length, 10 ng) enzyme, the purified ATP (10 uM), and a specific substrate solution were reacted at 25° C. for 1 hour, and then the enzyme activity was identified using the in vitro ADP-Glo™ kinase assay (promega). Luminescence was measured by reacting the enzyme activity reaction solution, an ADP-Glo reaction solution and the enzyme potency detection solution in a ratio of 2:2:1. The degree of inhibition of enzyme activity according to the treatment concentrations of the respective compounds was calculated based on the fluorescence of the enzyme activity of a solvent control group that was not treated with the compound, where the concentration of each compound to inhibit enzyme activity inhibition by 50% was determined as an IC50 (nM) value. The IC50 of each compound was determined in triplicate data sets and obtained using Prism (version 7.01, GraphPad) software.
(§3) In the table below, the following designations were used for the evaluation of enzyme inhibitory ability.

[2] = target: T2, human GST-CLK1 (129-end) (Homo sapiens, UniProt P49759); assay: GST-CLK1 enzyme inhibition, ADP-Glo kinase assay; assay type: biochemical; conditions: ATP 10 uM
T2 construct: purified human GST-CLK1 (129-end, Signalchem) enzyme; GST; purchased Signalchem
T2 sequence (P49759 129-484 limits assumed): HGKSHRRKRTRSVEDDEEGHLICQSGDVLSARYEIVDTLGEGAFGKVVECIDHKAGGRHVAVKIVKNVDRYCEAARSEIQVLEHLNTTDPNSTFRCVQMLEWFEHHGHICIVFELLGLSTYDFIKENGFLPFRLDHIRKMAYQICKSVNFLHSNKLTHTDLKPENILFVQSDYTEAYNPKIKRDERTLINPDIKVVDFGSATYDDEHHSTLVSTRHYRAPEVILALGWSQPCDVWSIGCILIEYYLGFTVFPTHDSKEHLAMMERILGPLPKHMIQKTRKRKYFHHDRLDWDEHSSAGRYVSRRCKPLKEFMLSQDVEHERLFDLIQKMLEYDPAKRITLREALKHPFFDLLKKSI
Procedure: as §1
as §2, with “GST-CLK1 (129-end, Signalchem)” for “GST-DYRK1A (full length, Thermo scientifics)”, “GST-CLK1 (129-end, 3” for “GST-DYRK1A (full length, 10”
as §3

IC50 [1] | IC50 [2] | SMILES
301 to 1000 nM | 101 to 300 nM | CCNc1cc(Nc2ccc(C(=O)N3CCOCC3)c3c2OCO3)nc2[nH]cc(C#N)c12 [Example 33]
< 100 nM | < 100 nM | CCNc1cc(Nc2ccc(C(=O)N3CCC(N4CCOCC4)CC3)c3c2OCO3)nc2[nH]cc(C#N)c12 [Example 34, 4-(ethylamino)-6-((7-(4-morpholinopiperidine-1-carbonyl)benzo[d] [1,3]dioxol-4-yl)amino)-1H-pyrrolo[2,3-b]pyridine-3-carbonitrile]
101 to 300 nM | 101 to 300 nM | CCNc1cc(Nc2ccc(C(=O)N3CCN(C4COC4)CC3)c3c2OCCO3)nc2[nH]cc(C#N)c12 [Example 35, 4-(ethylamino)-6-((8-(4-(oxetan-3-yl)piperazine-1-carbonyl)-2,3-dihydrobenzo[b] [1,4]dioxin-5-yl)amino)-1H-pyrrolo[2,3-b]pyridine-3-carbonitrile]
301 to 1000 nM | 301 to 1000 nM | N#Cc1c[nH]c2nc(Nc3ccc(C(=O)N4CCOCC4)c4c3OCCO4)cc(NC3CCC3)c12 [Example 36, 4-(cyclobutylamino)-6-((8-(morpholine-4-carbonyl)-2,3-dihydrobenzo[b] [1,4]dioxin-5-yl)amino)-1H-pyrrolo[2,3-b]pyridine-3-carbonitrile]
301 to 1000 nM | 301 to 1000 nM | O=C(c1ccc(Nc2cc(NC3CCCCC3)c3c(Cl)c[nH]c3n2)c2c1OCCO2)N1CCOCC1 [Example 61, (8-((3-chloro-4-(cyclohexylamino)-1H-pyrrolo[2,3-b]pyridin-6-yl)amino)-2,3-dihydrobenzo[b] [1,4]dioxin-5-yl)(morpholino) methanone]
301 to 1000 nM | 301 to 1000 nM | COCCNc1cc(Nc2ccc(S(=O)(=O)N3CCOCC3)cc2OC)nc2[nH]cc(Cl)c12 [Example 71, 3-chloro-N^6-(2-methoxy-4-(morpholinosulfonyl)phenyl)-N^4-(2-methoxyethyl)-1H-pyrrolo[2,3-b]pyridine-4,6-diamine]
301 to 1000 nM | 301 to 1000 nM | COc1cc(S(=O)(=O)N2CCC(N3CCOCC3)CC2)ccc1Nc1cc(NC2CCCCC2)c2c(Cl)c[nH]c2n1 [Example 77, 3-chloro-N^4-cyclohexyl-N^6-(2-methoxy-4-((morpholinopiperidin-1-yl)sulfonyl)phenyl)-1H-pyrrolo[2,3-b]pyridine-4,6-diamine]
301 to 1000 nM | 301 to 1000 nM | COCCNc1cc(Nc2ccc(S(=O)(=O)N3CCC(N4CCOCC4)CC3)cc2OC)nc2[nH]cc(Cl)c12 [Example 78, 3-chloro-N^6-(2-methoxy-4-((morpholinopiperidin-1-yl)sulfonyl)phenyl)-N^4-(2-methoxyethyl)-1H-pyrrolo[2,3-b]pyridine-4,6-diamine]
< 100 nM | < 100 nM | COc1cc(S(=O)(=O)N2CCC(N3CCOCC3)CC2)ccc1Nc1cc(NCCS(C)(=O)=O)c2c(Cl)c[nH]c2n1 [Example 79, 3-chloro-N^6-(2-methoxy-4-((morpholinopiperidin-1-yl)sulfonyl)phenyl)-N^4-(2-(methylsulfonyl)ethyl)-1H-pyrrolo[2,3-b]pyridine-4,6-diamine]
301 to 1000 nM | 301 to 1000 nM | COc1cc(S(C)(=O)=O)ccc1Nc1cc(NC2CCCCC2)c2c(Cl)c[nH]c2n1 [Example 86, 3-chloro-N^4-cyclohexyl-N^6-(2-methoxy-4-(methylsulfonyl)phenyl)-1H-pyrrolo[2,3-b]pyridine-4,6-diamine]
301 to 1000 nM | 301 to 1000 nM | COCCNc1cc(Nc2ccc(S(C)(=O)=O)cc2OC)nc2[nH]cc(Cl)c12 [Example 87, 3-chloro-N^6-(2-methoxy-4-(methylsulfonyl)phenyl)-N^4-(2-methoxyethyl)-1H-pyrrolo[2,3-b]pyridine-4,6-diamine]
101 to 300 nM | 301 to 1000 nM | CCOCCNc1cc(Nc2ccc(C(=O)N3CCOCC3)c3c2OCCO3)nc2[nH]cc(C(F)(F)F)c12 [Example 166, (8-((4-((2-ethoxyethyl)amino)-3-(trifluoromethyl)-1H-pyrrolo[2,3-b]pyridin-6-yl)amino)-2,3-dihydrobenzo[b] [1,4]dioxin-5-yl)(morpholino) methanone]
< 100 nM | < 100 nM | CCOCCNc1cc(Nc2ccc(C(=O)N3CCC(N4CCOCC4)CC3)c3c2OCCO3)nc2[nH]cc(C(F)(F)F)c12 [Example 167, (8-((4-((2-ethoxyethyl)amino)-3-(trifluoromethyl)-1H-pyrrolo[2,3-b]pyridin-6-yl)amino)-2,3-dihydrobenzo[b] [1,4]dioxin-5-yl)(4-morpholinopiperidin-1-yl)methanone]
301 to 1000 nM | < 100 nM | CC(C)Nc1cc(Nc2ccc(C(=O)N3CCOCC3)c3c2OCCO3)nc2[nH]cc(C(F)(F)F)c12 [Example 168, (8-((4-(isopropylamino)-3-(trifluoromethyl)-1H-pyrrolo[2,3-b]pyridin-6-yl)amino)-2,3-dihydrobenzo [b] [1,4]dioxin-5-yl)(morpholino) methanone]
301 to 1000 nM | 301 to 1000 nM | CCCCNc1cc(Nc2ccc(C(=O)N3CCOCC3)c3c2OCCO3)nc2[nH]cc(C(F)(F)F)c12 [Example 169, (8-((4-(butylamino)-3-(trifluoromethyl)-1H-pyrrolo[2,3-b]pyridin-6-yl)amino)-2,3-dihydrobenzo [b] [1,4]dioxin-5-yl)(morpholino) methanone]
301 to 1000 nM | < 100 nM | CCCCNc1cc(Nc2ccc(C(=O)N3CCC(N4CCOCC4)CC3)c3c2OCCO3)nc2[nH]cc(C(F)(F)F)c12 [Example 170, (8-((4-(butylamino)-3-(trifluoromethyl)-1H-pyrrolo[2,3-b]pyridin-6-yl)amino)-2,3-dihydrobenzo[b] [1,4]dioxin-5-yl)(4-morpholinopiperidin-1-yl)methanone]
301 to 1000 nM | 101 to 300 nM | O=C(c1ccc(Nc2cc(NC3CCC3)c3c(C(F)(F)F)c[nH]c3n2)c2c1OCCO2)N1CCOCC1 [Example 175, (8-((4-(cyclobutylamino)-3-(trifluoromethyl)-1H-pyrrolo[2,3-b]pyridin-6-yl)amino)-2,3-dihydrobenzo[b] [1,4]dioxin-5-yl)(morpholino) methanone 2,2,2-trifluoroacetate]
< 100 nM | < 100 nM | O=C(c1ccc(Nc2cc(NC3CCC3)c3c(C(F)(F)F)c[nH]c3n2)c2c1OCCO2)N1CCC(N2CCOCC2)CC1 [Example 176, (8-((4-(cyclobutylamino)-3-(trifluoromethyl)-1H-pyrrolo[2,3-b]pyridin-6-yl)amino)-2,3-dihydrobenzo[b] [1,4]dioxin-5-yl)(4-morpholinopiperidin-1-yl)methanone]
301 to 1000 nM | 301 to 1000 nM | COc1cc(P(C)(C)=O)ccc1Nc1cc(C2CC2)c2c(C#N)c[nH]c2n1 [Example 230, 4-cyclopropyl-6-((4-(dimethylphosphoryl)-2-methoxyphenyl)amino)-1H-pyrrolo[2,3-b]pyridine-3-carbonitrile]
